Source: US20230158152A1, “PROTEOLYSIS REGULATOR AND METHOD FOR USING SAME” (MEDSHINE DISCOVERY INC., priority 2020, published 2023)
Counter-ions that a name gives are not always drawn.

Tests used:
[1] = target: T1, Recombinant human-derived ALK (Homo sapiens, UniProt Q9UM73); assay: Inhibitory activity of compounds against ALK kinase (time-resolved fluorescence resonance energy transfer); assay type: biochemical; conditions: 30 μM ATP, 50 nM ULight-poly GT peptide
T1 construct: BAG10812.1; 1058-1620 (terminal) amino acids; GST (N); made in house
T1 sequence (Q9UM73 1058-1620): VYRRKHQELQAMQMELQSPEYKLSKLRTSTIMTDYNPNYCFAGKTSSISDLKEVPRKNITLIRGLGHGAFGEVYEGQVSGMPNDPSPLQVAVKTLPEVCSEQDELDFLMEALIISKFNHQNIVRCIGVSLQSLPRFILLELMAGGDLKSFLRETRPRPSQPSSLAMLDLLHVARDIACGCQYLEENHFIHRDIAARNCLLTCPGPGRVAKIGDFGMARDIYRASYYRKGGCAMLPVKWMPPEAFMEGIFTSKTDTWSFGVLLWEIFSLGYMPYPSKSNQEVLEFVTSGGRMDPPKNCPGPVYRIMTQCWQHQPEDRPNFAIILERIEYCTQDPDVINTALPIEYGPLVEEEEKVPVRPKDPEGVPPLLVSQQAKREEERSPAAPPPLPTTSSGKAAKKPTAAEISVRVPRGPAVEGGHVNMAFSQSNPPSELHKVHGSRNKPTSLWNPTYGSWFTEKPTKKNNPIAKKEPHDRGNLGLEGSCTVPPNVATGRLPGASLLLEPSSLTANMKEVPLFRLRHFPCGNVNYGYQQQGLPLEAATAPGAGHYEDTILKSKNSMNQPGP
Procedure: The inhibitory activity of the compounds on ALK kinase was detected by time-resolved fluorescence resonance energy transfer method, that is, the ratio of fluorescence signals at 665 nm/615 nm was used to represent the activity of the enzyme.
Assay buffer solution: 50 mM 2-[4-(2-hydroxyethyl)-1-piperazinyl]ethanesulfonic acid buffer solution (HEPES) (pH 7.5), 10 mM MgCl2, 1 mM EDTA 0.01%, polyoxyethylene lauryl ether (Brij 35), 2 mM dithiothreitol (DTT).
Enzyme: Recombinant human-derived ALK (gene accession number: BAG10812.1; 1058-1620 (terminal) amino acids) was expressed with a N-terminal GST fusion protein (90 kDa) using a baculovirus expression system.
Enzyme substrate: 50 nM ULight-poly GT polypeptide.
Detection: europium-labeled anti-phosphotyrosine (PT66) antibody.
1. Compounds dissolved in 100% DMSO were added to 384-well plates by acoustic technique; 2. Recombinant human-derived ALK enzyme and enzyme substrate (50 nM ULight-poly GT peptide) or zymolyte (30 μM ATP) were dissolved in freshly prepared assay buffer; 3. The above ALK enzyme and enzyme substrate in the buffer solution were transferred to reaction wells; 4. Then, the zymolyte in the buffer solution was added to the above reaction wells to initiate the reaction; 5. The plate was incubated at room temperature for 1 hour; 6. The detection mixture (PT66 antibody and EDTA) was added to terminate the reaction, and the mixture was incubated at room temperature for 60 minutes; 7. Then, the plate was read using a microplate reader to obtain the ratio of fluorescence signals at 665 nm/615 nm.
Data analysis: Emission ratio (665 nm/615 nm) in the original data was involved in the calculation of the inhibition rate. The concentration and inhibition rate were analyzed using XLfit software 205 mode (4 Parameters Logistic Model) to obtain IC50 value and curve.

[2] = tested on: human acute myeloid leukemia cell MV4-11; assay: Anti-proliferative effect in human acute myeloid leukemia cell MV4-11 (CellTiter-Glo); assay type: cell-based; conditions: MV4-11, 96 h, cell proliferation, incubated for 4 days
Procedure: In this assay, the inhibitory effect of assay compounds on cell proliferation in human acute myeloid leukemia cell MV4-11 was detected by ATP fluorescence activity detection (CellTiter-Glo).
(§1) (1) Promega CellTiter-Glo luminescent cell viability assay kit (Promega-G7573). (2) 2104 EnVision® plate reader, PerkinElmer.
(§2) The tumor cell line was cultured in a 37° C., 5% CO2 incubator according to the above-mentioned culture conditions. Cells were passaged periodically, and cells in logarithmic growth phase were used for plating.
(1). Cells were stained with trypan blue and viable cells were counted; (2). The cell concentration was adjusted to an appropriate concentration; (3). 90 μL of cell suspension was added to each well of the culture plate, and each well contained 6000 cells. In the blank group and other wells, no cells were inoculated, and only 90 μL of culture medium was added; (4). The plate was incubated in an incubator at 37° C., 5% CO2, and 100% relative humidity overnight.
(1) Formulation of 10× drug solution: A sterile round bottom 96-well plate was used, and the concentration of mother solutions of WX007, WX008, WX009, WX010, WX011 and WX012 was 10 mM. 5 μL of compound was added to the first well with 5 μL of 1640 medium, and mixed well to obtain a concentration of 5 mM. 5 μL of compound from the first well was added to the third well containing 45 μL of 1640 medium and mixed well to obtain a concentration of 500 μM. 5 μL of compound from the third well was added to the fourth well containing 45 μL of 1640 medium and mixed well to obtain a concentration of 50 μM. 20 μL of compound from the fourth well was added to the fifth well containing 180 μL of 1640 medium and mixed well to obtain 5 μM mother solution. Another sterile round bottom 96-well plate was used, and 60 μL of 5 μM compound was added to the first well. 30 μL of 5 μM compound was added to the second well with 60 μL of 1640 medium, and so forth. Compounds were serially diluted 3-fold to obtain a total of 9 concentrations. To the blank control was added an equal volume of DMSO in the same dilution way.
(2) Formulation of drug solution with the final concentration: 10 μL of the 10× drug solution as prepared above was added to 90 μL of culture medium in triplicate. To the control group was added an equal volume of DMSO solution, and the cell plate was flicked, so that the solution was mixed well. To the blank group was added 10 μL of 1640 medium. The plate was gently taped, so that the solution was mixed well. The plate was placed back in 37° C., 5% CO2 incubator and incubated for 4 days.
(1) Formulation of the drug solution: A sterile round-bottom 96-well plate was used, and the stock concentration of each compound was 10 mM. 2 μL of compound in 18 μL of DMSO was added to the first well and the mixture was mixed well to obtain a concentration of 1 mM; 10 μL of compound from the first well was added to the third well containing 90 μL of 1640 medium and the mixture was mixed well to obtain a concentration of 100 μM;
(2) For WX058, WX059, WX060 and WX042, 12 μL of solution from the third well obtained above was added to the fourth well containing 108 μL of 1640 medium and the mixture was mixed well to obtain a drug with 10 μM maximum concentration.
(3) Another new sterile round bottom 96-well plate was used, and 60 μL of each drug with the maximum concentration in step (2) was placed in the first well. 60 μL of solution from the first well was added to the second well with 60 μL 1640 medium, and so forth. Compounds were serially diluted 2-fold to obtain a total of 9 concentrations.
(4) For the blank control group, an equal volume of DMSO was added in the same dilution way.
(5) 10 μL of the solution with gradient drug concentrations prepared as above was added to 90 μL of culture medium in triplicate. For the control group, an equal volume of DMSO solution was added. The cell plate was gently tapped, so that the solution was mixed well. […]

[3] = tested on: human lung cancer cell NCI-H2228; assay: Anti-proliferative effect in human lung cancer cell NCI-H2228 (CellTiter-Glo); assay type: cell-based; conditions: NCI-H2228, 72 h, cell proliferation, cultured for 3 days
Procedure: In this assay, the inhibitory effect of assay compounds on cell proliferation was assayed in human lung cancer cell NCI-H2228.
as §1, §2
(1). Cells were stained with trypan blue and viable cells were counted; (2). The cell concentration was adjusted to an appropriate concentration;
(3). 90 μL of cell suspension was added to each well of the culture plate as shown in the table above, and cell-free culture medium was added to the blank control well; (4). The plate was incubated in an incubator at 37° C., 5% CO2, and 100% relative humidity overnight.
Preparation of a mother solution storage plate with 400 times the starting compound concentration: the compounds were diluted serially with DMSO from the highest concentration to the lowest concentration. The plate was prepared freshly every time it was used.
(1). 78 μL of cell culture medium was added to a 96-well plate with a V-shaped bottom. […]
(1). […] The culture plate was left at room temperature for 10 minutes to stabilize the luminescence signal; (9). The luminescent signal was detected on a 2104 EnVision plate reader. […]

[4] = tested on: human lung cancer NCI-H2228 cells subcutaneous xenograft tumor; assay: In vivo pharmacodynamic study in subcutaneous xenograft tumor NOD SCID mouse model of human lung cancer NCI-H2228 cells; set-up: species or system NOD SCID mice; conditions: 50 mg/kg subcutaneous injection once a day
Procedure: Human lung cancer cell NCI-H2228 (ATCC® CRL-5935™) was cultured in vitro in an adherent monolayer in RPMI 1640 medium supplemented with 10% fetal bovine serum, 100 U/mL penicillin and 100 μg/mL streptomycin in an incubator at 37° C. and 5% CO2. Cells were passaged by routine digestion with trypsin-EDTA twice a week. When the cell saturation was 80%-90% and the number met the requirement, the cells are collected, counted, and inoculated.
NOD SCID mice, female, 6-8 weeks old, weighing 18-22 grams.
0.2 mL (10×10^6 cells) of NCI-H2228 cells (with matrigel, v/v 1:1) were subcutaneously inoculated into the right back of each mouse. The administration by group was started when the average tumor volume reached 171 mm^3. One administration cycle comprised seven days, with administration once a day. The assay compounds were administered by subcutaneous injection for a total of four cycles. The subcutaneous injection doses of the assay compounds WX001 and WX002 were both 50 mg/kg. Tumor diameter was measured twice a week with a vernier caliper, and tumor volume was measured in cubic millimeters and calculated by the following formula: V=0.5a×b^2, where a and b are the long and short diameters of the tumor, respectively. The tumor-inhibitory efficacy of the assay compounds was evaluated by using TGI (%). TGI (%) reflects a tumor growth inhibition rate. TGI (%)=[1−(Average tumor volume at the end of administration of a treatment group−Average tumor volume at the beginning of administration of the treatment group)/(Average tumor volume at the end of treatment of a vehicle control group−Average tumor volume at the beginning of treatment of the vehicle control group)]×100%.

Row | Structure (SMILES) | IC50 [2] [µM] | further results
1 | Cc1cc(Nc2ncc(Cl)c(Nc3ccccc3S(=O)(=O)C(C)C)n2)c(OC(C)C)cc1C1CCN(C(=O)COc2ccc3occ(C4CCC(=O)NC4=O)c3c2)CC1 (centres unmarked) [WX003] |  | IC50 [1]: 33.8 nM
2 | Cc1sc2c(c1C)C(c1ccc(Cl)cc1)=N[C@@H](CC(=O)NCCOc1ccc3c(ccc4occ(C5CCC(=O)NC5=O)c43)c1)c1nnc(C)n1-2 (some centres unmarked) [WX007] | 0.202 | 
3 | Cc1cc(Nc2ncc(Cl)c(Nc3ccccc3S(=O)(=O)C(C)C)n2)c(OC(C)C)cc1C1CCN(CCOc2ccc3occ(C4CCC(=O)NC4=O)c3c2)CC1 (centres unmarked) [WX006] |  | IC50 [1]: 12.2 nM
4 | Cc1sc2c(c1C)C(c1ccc(Cl)cc1)=N[C@@H](CC(=O)NCCCCCCNc1ccc3c(ccc4occ(C5CCC(=O)NC5=O)c43)c1)c1nnc(C)n1-2 (some centres unmarked) [WX009] | 0.0517 | 
5 | Cc1sc2c(c1C)C(c1ccc(Cl)cc1)=N[C@@H](CC(=O)NCCOCCOCCOc1ccc3c(ccc4occ(C5CCC(=O)NC5=O)c43)c1)c1nnc(C)n1-2 (some centres unmarked) [WX008] | 0.0225 | 
6 | Cc1cc(Nc2ncc(Cl)c(Nc3ccccc3S(=O)(=O)C(C)C)n2)c(OC(C)C)cc1C1CCN(CC(=O)NCc2ccc3c(ccc4occ(C5CCC(=O)NC5=O)c43)c2)CC1 (centres unmarked) [WX002 hydrochloride] |  | IC50 [1]: 15.6 nM; IC50 [3]: 0.16 µM; Tumor volume (Day 1) ([4]; Day 1): 172 ± 11 mm^3; TGI (Day 28) ([4]; Day 28): 100.38%; Tumor volume (Day 28) ([4]; Day 28): 169 ± 30 mm^3
7 | Cc1sc2c(c1C)C(c1ccc(Cl)cc1)=N[C@@H](CC(=O)NCCCOc1ccc3occ(C4CCC(=O)NC4=O)c3c1)c1nnc(C)n1-2 (some centres unmarked) [WX058] | 0.0113 | 
8 | Cc1sc2c(c1C)C(c1ccc(Cl)cc1)=N[C@@H](CC(=O)NCCCCCCOc1ccc3c(ccc4occ(C5CCC(=O)NC5=O)c43)c1)c1nnc(C)n1-2 (some centres unmarked) [WX012] | 0.0706 | 
9 | Cc1sc2c(c1C)C(c1ccc(Cl)cc1)=N[C@@H](CC(=O)NCCNc1ccc3c(ccc4occ(C5CCC(=O)NC5=O)c43)c1)c1nnc(C)n1-2 (some centres unmarked) [WX010] | 0.0613 | 
10 | Cc1sc2c(c1C)C(c1ccc(Cl)cc1)=N[C@@H](CC(=O)NCCCNC(=O)COc1ccc3occ(C4CCC(=O)NC4=O)c3c1)c1nnc(C)n1-2 (some centres unmarked) [WX042] | 0.0353 | 
11 | Cc1sc2c(c1C)C(c1ccc(Cl)cc1)=N[C@@H](CC(=O)NCCCCOc1ccc3occ(C4CCC(=O)NC4=O)c3c1)c1nnc(C)n1-2 (some centres unmarked) [WX060] | 0.017 | 
12 | Cc1sc2c(c1C)C(c1ccc(Cl)cc1)=N[C@@H](CC(=O)NCCOc1ccc3occ(C4CCC(=O)NC4=O)c3c1)c1nnc(C)n1-2 (some centres unmarked) [WX059] | 0.0166 | 
13 | Cc1sc2c(c1C)C(c1ccc(Cl)cc1)=N[C@@H](CC(=O)NCCOCCOc1ccc3c(ccc4occ(C5CCC(=O)NC5=O)c43)c1)c1nnc(C)n1-2 (some centres unmarked) [WX011] | 0.0738 | 
